Measured values from PubChem BioAssay AID2060612 (Molecular Pharmacology Branch, DTP, NCI, 2025).

System: 565232-114-T-J1-PDC complex spheroid viability
Assay: Anticancer human tumor 565232-114-T-J1-PDC patient-derived bladder carcinoma cell line growth inhibition [CLK]
Details: for IC50: curve of first compound; for viability, T/C: stronger effect = lower value
Method in brief: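 Patient-derived tumor cells grown as complex spheroids with HUVEC endothelial cells and mesenchymal stem cells, treated with drug combinations. Concentrations descend in half-log steps from near clinical Cmax, or from 10 microM if Cmax unknown.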

[1] = second compound 0.0316 µM, first compound 0.0316 µM
[2] = second compound 0.0316 µM, first compound 0.1 µM
[3] = second compound 0.0316 µM, first compound 0.316 µM
[4] = second compound 0.0316 µM, first compound 1 µM
[5] = second compound 0.0316 µM, first compound 3.16 µM
[6] = second compound 0.0316 µM, first compound 10 µM
[7] = second compound 0.1 µM, first compound 0.0316 µM
[8] = second compound 0.1 µM, first compound 0.1 µM
[9] = second compound 0.1 µM, first compound 0.316 µM
[10] = second compound 0.1 µM, first compound 1 µM
[11] = second compound 0.1 µM, first compound 3.16 µM
[12] = second compound 0.1 µM, first compound 10 µM
[13] = second compound 0.316 µM, first compound 0.0316 µM
[14] = second compound 0.316 µM, first compound 0.1 µM
[15] = second compound 0.316 µM, first compound 0.316 µM
[16] = second compound 0.316 µM, first compound 1 µM
[17] = second compound 0.316 µM, first compound 3.16 µM
[18] = second compound 0.316 µM, first compound 10 µM
[19] = second compound 1 µM, first compound 0.0316 µM
[20] = second compound 1 µM, first compound 0.1 µM
[21] = second compound 1 µM, first compound 0.316 µM
[22] = second compound 1 µM, first compound 1 µM
[23] = second compound 1 µM, first compound 3.16 µM
[24] = second compound 1 µM, first compound 10 µM
[25] = second compound 3.16 µM, first compound 0.0316 µM
[26] = second compound 3.16 µM, first compound 0.1 µM
[27] = second compound 3.16 µM, first compound 0.316 µM
[28] = second compound 3.16 µM, first compound 1 µM
[29] = second compound 3.16 µM, first compound 3.16 µM
[30] = second compound 3.16 µM, first compound 10 µM
[31] = second compound 10 µM, first compound 0.0316 µM
[32] = second compound 10 µM, first compound 0.1 µM
[33] = second compound 10 µM, first compound 0.316 µM
[34] = second compound 10 µM, first compound 1 µM
[35] = second compound 10 µM, first compound 3.16 µM
[36] = second compound 10 µM, first compound 10 µM
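Also: spheroids exposed to compounds for 7 days before readout.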
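For viability, T/C in this document: 100% = DMSO vehicle wells with luminescence normalized to vehicle control.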

CC(C)CC(NC(=O)C(Cc1ccccc1)NC(=O)c1cnccn1)B(O)O (stereo not drawn) + CN1CCN(c2cc(C(=O)Nc3cc4cc(-c5cnn(C)c5)ccc4cn3)ccn2)CC1
IC50 (second compound 0.0316 µM): 5.73 nM
IC50 (second compound 0.1 µM): 6.17 nM
IC50 (second compound 0.316 µM): < 0.949 nM
IC50 (second compound 1 µM): < 0.949 nM
IC50 (second compound 3.16 µM): < 0.949 nM
IC50 (second compound 10 µM): < 0.949 nM
viability, T/C (second compound 0.0316 µM, first compound 0.000949 µM): 120%
viability, T/C (second compound 0.0316 µM, first compound 0.003 µM): 109%
viability, T/C (second compound 0.0316 µM, first compound 0.00949 µM): 4.38%
viability, T/C (second compound 0.0316 µM, first compound 0.03 µM): 1.43%
viability, T/C (second compound 0.0316 µM, first compound 0.0949 µM): 1.54%
viability, T/C (second compound 0.0316 µM, first compound 0.3 µM): 1.27%
viability, T/C (second compound 0.1 µM, first compound 0.000949 µM): 129%
viability, T/C (second compound 0.1 µM, first compound 0.003 µM): 133%
viability, T/C (second compound 0.1 µM, first compound 0.00949 µM): 2.13%
viability, T/C (second compound 0.1 µM, first compound 0.03 µM): 1.8%
viability, T/C (second compound 0.1 µM, first compound 0.0949 µM): 1.71%
viability, T/C (second compound 0.1 µM, first compound 0.3 µM): 1.6%
viability, T/C (second compound 0.316 µM, first compound 0.000949 µM): 23.8%
viability, T/C (second compound 0.316 µM, first compound 0.003 µM): 25.9%
viability, T/C (second compound 0.316 µM, first compound 0.00949 µM): 3.56%
viability, T/C (second compound 0.316 µM, first compound 0.03 µM): 1.36%
viability, T/C (second compound 0.316 µM, first compound 0.0949 µM): 1.26%
viability, T/C (second compound 0.316 µM, first compound 0.3 µM): 0.65%
viability, T/C (second compound 1 µM, first compound 0.000949 µM): 0.22%
viability, T/C (second compound 1 µM, first compound 0.003 µM): 3%
viability, T/C (second compound 1 µM, first compound 0.00949 µM): 1.91%
viability, T/C (second compound 1 µM, first compound 0.03 µM): 0.18%
viability, T/C (second compound 1 µM, first compound 0.0949 µM): 2.19%
viability, T/C (second compound 1 µM, first compound 0.3 µM): 2.68%
viability, T/C (second compound 3.16 µM, first compound 0.000949 µM): 0.16%
viability, T/C (second compound 3.16 µM, first compound 0.003 µM): 1.18%
viability, T/C (second compound 3.16 µM, first compound 0.00949 µM): 0.21%
viability, T/C (second compound 3.16 µM, first compound 0.03 µM): 0.14%
viability, T/C (second compound 3.16 µM, first compound 0.0949 µM): 0.16%
viability, T/C (second compound 3.16 µM, first compound 0.3 µM): 1.81%
viability, T/C (second compound 10 µM, first compound 0.000949 µM): 0.1%
viability, T/C (second compound 10 µM, first compound 0.003 µM): 3.27%
viability, T/C (second compound 10 µM, first compound 0.00949 µM): 3.03%
viability, T/C (second compound 10 µM, first compound 0.03 µM): 0.17%
viability, T/C (second compound 10 µM, first compound 0.0949 µM): 1.45%
viability, T/C (second compound 10 µM, first compound 0.3 µM): 0.23%

CC1(C)CCC(CN2CCN(c3ccc(C(=O)NS(=O)(=O)c4ccc(NCC5CCOCC5)c([N+](=O)[O-])c4)c(Oc4cnc5[nH]ccc5c4)c3)CC2)=C(c2ccc(Cl)cc2)C1 + CN1CCN(c2cc(C(=O)Nc3cc4cc(-c5cnn(C)c5)ccc4cn3)ccn2)CC1
IC50 (second compound 0.0316 µM): 9100 nM
IC50 (second compound 0.1 µM): 8010 nM
IC50 (second compound 0.316 µM): < 31.6 nM
IC50 (second compound 1 µM): < 31.6 nM
IC50 (second compound 3.16 µM): < 31.6 nM
IC50 (second compound 10 µM): < 31.6 nM
viability, T/C [1]: 104%
viability, T/C [2]: 89%
viability, T/C [3]: 98.6%
viability, T/C [4]: 95.9%
viability, T/C [5]: 79.5%
viability, T/C [6]: 47.4%
viability, T/C [7]: 88.2%
viability, T/C [8]: 79.3%
viability, T/C [9]: 95.1%
viability, T/C [10]: 119%
viability, T/C [11]: 82.2%
viability, T/C [12]: 42.3%
viability, T/C [13]: 13.7%
viability, T/C [14]: 18.3%
viability, T/C [15]: 18.5%
viability, T/C [16]: 17.6%
viability, T/C [17]: 22.8%
viability, T/C [18]: 11.4%
viability, T/C [19]: 1.1%
viability, T/C [20]: 0.27%
viability, T/C [21]: 0.22%
viability, T/C [22]: 0.2%
viability, T/C [23]: 0.21%
viability, T/C [24]: 0.31%
viability, T/C [25]: 0.35%
viability, T/C [26]: 2.16%
viability, T/C [27]: 1.93%
viability, T/C [28]: 0.23%
viability, T/C [29]: 1.8%
viability, T/C [30]: 1.49%
viability, T/C [31]: 0.16%
viability, T/C [32]: 1.55%
viability, T/C [33]: 1.55%
viability, T/C [34]: 0.15%
viability, T/C [35]: 0.15%
viability, T/C [36]: 0.8%

CC1COCCN1c1cc(C2(S(C)(=N)=O)CC2)nc(-c2ccnc3[nH]ccc23)n1 (stereo not drawn) + CN1CCN(c2cc(C(=O)Nc3cc4cc(-c5cnn(C)c5)ccc4cn3)ccn2)CC1
IC50 (second compound 0.0316 µM): > 10000 nM
IC50 (second compound 0.1 µM): 6510 nM
IC50 (second compound 0.316 µM): < 31.6 nM
IC50 (second compound 1 µM): < 31.6 nM
IC50 (second compound 3.16 µM): < 31.6 nM
IC50 (second compound 10 µM): < 31.6 nM
viability, T/C [1]: 89.7%
viability, T/C [2]: 93.5%
viability, T/C [3]: 98.5%
viability, T/C [4]: 79.7%
viability, T/C [5]: 101%
viability, T/C [6]: 50.7%
viability, T/C [7]: 95.7%
viability, T/C [8]: 91.2%
viability, T/C [9]: 80.7%
viability, T/C [10]: 82.6%
viability, T/C [11]: 98.8%
viability, T/C [12]: 26.1%
viability, T/C [13]: 16.3%
viability, T/C [14]: 18.7%
viability, T/C [15]: 14.9%
viability, T/C [16]: 9.37%
viability, T/C [17]: 3.94%
viability, T/C [18]: 3.31%
viability, T/C [19]: 0.17%
viability, T/C [20]: 0.5%
viability, T/C [21]: 0.18%
viability, T/C [22]: 0.19%
viability, T/C [23]: 1.38%
viability, T/C [24]: 1.91%
viability, T/C [25]: 0.25%
viability, T/C [26]: 0.22%
viability, T/C [27]: 3.08%
viability, T/C [28]: 0.81%
viability, T/C [29]: 0.72%
viability, T/C [30]: 2.22%
viability, T/C [31]: 1.75%
viability, T/C [32]: 2.46%
viability, T/C [33]: 1.22%
viability, T/C [34]: 0.21%
viability, T/C [35]: 0.21%
viability, T/C [36]: 0.53%

O=C(c1cc(Cc2n[nH]c(=O)c3ccccc23)ccc1F)N1CCN(C(=O)C2CC2)CC1 + CN1CCN(c2cc(C(=O)Nc3cc4cc(-c5cnn(C)c5)ccc4cn3)ccn2)CC1
IC50 (second compound 0.0316 µM): > 10000 nM
IC50 (second compound 0.1 µM): > 10000 nM
IC50 (second compound 0.316 µM): < 31.6 nM
IC50 (second compound 1 µM): < 31.6 nM
IC50 (second compound 3.16 µM): < 31.6 nM
IC50 (second compound 10 µM): < 31.6 nM
viability, T/C [1]: 110%
viability, T/C [2]: 117%
viability, T/C [3]: 109%
viability, T/C [4]: 94.4%
viability, T/C [5]: 128%
viability, T/C [6]: 130%
viability, T/C [7]: 122%
viability, T/C [8]: 106%
viability, T/C [9]: 139%
viability, T/C [10]: 115%
viability, T/C [11]: 148%
viability, T/C [12]: 108%
viability, T/C [13]: 23.3%
viability, T/C [14]: 22.6%
viability, T/C [15]: 24.8%
viability, T/C [16]: 20.1%
viability, T/C [17]: 19.8%
viability, T/C [18]: 16%
viability, T/C [19]: 0.19%
viability, T/C [20]: 1.21%
viability, T/C [21]: 0.25%
viability, T/C [22]: 0.17%
viability, T/C [23]: 0.18%
viability, T/C [24]: 0.19%
viability, T/C [25]: 0.15%
viability, T/C [26]: 0.29%
viability, T/C [27]: 1.69%
viability, T/C [28]: 0.26%
viability, T/C [29]: 2.21%
viability, T/C [30]: 4.24%
viability, T/C [31]: 1.42%
viability, T/C [32]: 0.19%
viability, T/C [33]: 3.03%
viability, T/C [34]: 0.19%
viability, T/C [35]: 0.25%
viability, T/C [36]: 0.28%
